“And” between values parts separate entries of the source, which are not always exact repeats. Identical values can stand only once. “Also recorded” adds a separate entry of the source.

The subject of data set [1] is HUVEC cells. In words: Western blotting for cleaved caspase 3 and cleaved PARP (apoptosis). The data set is classed as cell-based, human. The conditions noted are these: 100 nM GA. The protocol: HUVEC cells pretreated with or without 4 nM VEGF for 5 min were treated with or without different concentrations of GA for another 5 minutes. 200 μg total protein of the cells of each sample was subjected to immunoprecipitation using anti-c-Src, anti-FAK and anti-AKT antibodies (Santa Cruz Biotech) and further subjected to Western blotting. The pTyr-antibody (Santa Cruz Biotech) was used for detecting c-Src phosphorylation and the pFAK397 antibody (Cell Signaling) was blotted for c-Src-associated FAK phosphorylation at […]. In addition, AKT phosphorylation was examined using a pSer473-AKT antibody (Cell Signaling). Anti-cleaved caspase 3 antibody (Santa Cruz Biotech) was used for detecting cleaved caspase 3 and polyADP ribose polymerase (PARP) cleavage was detected by an anti-PARP p85 fragment (Promega) in apoptosis assays.
Several previous studies described gambogic acid (FIG. 1A) activated apoptosis in cancer cells, which partly answered the molecular mechanism of GA's anticancer characters. […] Whole cell proteins of GA treated HUVECs were analyzed by Western blotting with anticleaved caspase 3 and PARP antibodies. […] To investigate if the apoptotic activation effect of GA is different between endothelial cells and cancer cells, we measured the apoptotic populations of HUVECs and human prostate cancer cell PC3 cells treated with GA by flow cytometry FACS assays. […]
A general note: Immunoblotting shows a protein as a band on a membrane.

Data set [2] relates to HUVEC cells. In words: Flow cytometry / FACS apoptosis (Sub G1, propidium iodide). The format is cell-based, human. Particulars: 24 hours. The protocol:
(§1) About 2×10^6 HUVEC and PC3 cells were treated with different concentrations of GA at 37° C. in a 5% CO2 incubator for 24 hours. The cells were collected and flow cytometry was performed using a FACS Vantage SE DiVa flow cytometer (Becton Dickinson) with propidium iodide staining. The cell population percentages at Sub G1 were defined as apoptotic cells.
For orientation: In flow cytometry, cells or beads pass a laser one at a time.

The test system of the next data set is PC3 cells. Described as above. The data set is classed as cell-based, human. The conditions noted are these: 24 hours. As for the experimental part: as §1
Data set [3] concerns HUVEC cells. Nature of the data set: Wound migration assay, VEGF dependent. The conditions noted are these: 10 nM GA, 4 ng/ml VEGF, 24 hours. The data set is classed as cell-based, human. As for the experimental part:
HUVEC cells were allowed to grow to full confluence on six-well plates precoated with 0.1% gelatin. Monolayer cells were wounded by scratching with 1 ml pipette tip and washed three times with 1×PBS. Fresh endothelial cell growth medium (hereinafter, ECGM) was added with or without 4 ng/ml VEGF, which was received from the NIH experimental branch, and supplemented with different concentrations of GA. Images were taken after 24 hours of incubation at 37° C. in a 5% CO2 incubator (hereinafter, 5% CO2) with a Nikon digital camera. For PC3 cell migration, PC3 cells were allowed to grow to full confluence on six-well plates and wounded by scratching with a 1 ml pipette tip and washed three times of 1×PBS. Fresh 1640 medium was added with 4 ng/ml VEGF and different concentrations of GA. After a 24-hour incubation period, images were take with a Leica DM IRB inverted microscope. The migrated cells were quantified by manual counting of high power fields (HPF, 200×) and percent inhibition was expressed using untreated wells as 100% (t-test, p<0.005).

Data set [4] concerns PC3 human prostate tumor cells in SCID male mice. The format is in vivo. The protocol:
The 5-6 week old severe combined immune deficiency (SCID) male mice (ordered from NIH, each weighing about 20 g) were divided into groups of five mice per group. Log-phase PC3 human prostate tumor cells were subcutaneously injected (2×10^6 cell per mouse) into the mice. After the tumors had become established (about 50 mm^3), the mice were subcutaneously injected with or without 3 mg/kg GA every day. The mice body weights and tumor sizes were recorded every day and the tumor sizes were determined by Vernier caliper measurements and calculated as length×width×height. After 15 days, mice with subcutaneous (hereinafter, s.c.) tumors no greater than 1.5 cm in diameter were sacrificed in accordance with University of California Los Angeles Animal Rights Committee Guidelines. The tumors were removed and fixed with Histochoice® MB (Molecular Biology) tissue fixative (Amresco®) and embedded with paraffin. The 5 μm sections were performed specific blood vessel staining with CHEMICON's Blood Vessel Staining Kit (von Willebrand Factor, Chemicon International, blood vessel staining kit, peroxidase system). Images were taken with a ZEISS Axioskop 40 photomicroscope. The number of blood vessels in the high power fields (HPF, 200×) was counted (plug number=4-5, t-test, p<0.005).

The test system of another data set is mouse cornea. Nature of the data set: VEGF induced corneal angiogenesis, mouse corneal model. Particulars: 2.5 μg/ml GA, 160 ng/ml VEGF. The format is in vivo.
The test system of a further data set is mice exposed to OIR. In words: Mouse oxygen-induced ischemic retinopathy (OIR) model, retinal neovascularization. The format is in vivo. Particulars: GA 10 mg/kg, P17 mice exposed to OIR, p<0.001. The protocol:
FIG. 9B is a bar graph providing a quantitative assessments of retinal neovascularization in eyes from P17 control and GA-treated mice exposed to OIR. Data in each column are the mean SD values from four eyes of four mice. […] GA concentration was used as 10 mg/kg for this mouse model. Assessment of retinal neovasculature in control (left) and GA-treated (right) mice during OIR.P7 mice were exposed to a cycle of hyperoxia and normoxia, and eyes were removed for appropriate analysis. The abnormal angiogenesis associated with vitreal invasion can be seen as glomeruloid-like tufts of cell (arrow).

For data set [5] the following is noted: 4 mg/kg GA, 1 treatment every two days; cited from earlier work.

Regarding `CC(C)=CCC[C@]1(C)C=Cc2c(O)c3c(c(CC=C(C)C)c2O1)O[C@]12C(=C[C@@H]4C[C@H]1C(C)(C)O[C@@]2(C/C=C(/C)C(=O)O)C4=O)C3=O` [GA, gambogic acid], in the data set with HUVEC cells [1], the “Apoptosis by cleaved caspase 3 and cleaved PARP” value was “induces apoptosis; also recorded: strongly induced apoptosis”. The Apoptotic population is 11.6 ± 1.1 % of total in the data set on HUVEC cells [2] (GA 20 nM); 14.4 ± 2.3 % of total in the data set with HUVEC cells [2] (GA 40 nM); 40 % of total and 40 ± 3.6 % of total in the data set on HUVEC cells [2] (GA 80 nM); 57.6 ± 4.7 % of total in the data set on HUVEC cells [2] (GA 100 nM); 1.6 ± 0.3 % of total with PC3 cells (GA 20 nM); 2.9 ± 0.4 % of total in the data set with PC3 cells (GA 40 nM). Besides, the Apoptotic population in the data set on PC3 cells (GA 80 nM) is 4 % of total and 4.3 ± 0.5 % of total; with PC3 cells (GA 100 nM), 13.8 ± 3.6 % of total. In addition, in the data set on HUVEC cells [3], the “VEGF dependent migration of HUVEC cells” value is given as “inhibits VEGF dependent migration; also recorded: strongly inhibited VEGF dependent migration”. Further, in data set [4] (3 mg/kg GA every day s.c., 15 days), the “Tumor size after 15 days” value is 169.1±25.6 mm^3 and 127.4±25.6 mm^3. Moreover, the “Average vessel number in tumors” value in data set [4] (3 mg/kg GA every day, 15 days, HPF 200×) is given as 1.8±1.3 per HPF. The “Tumor size at start of treatment” value in data set [4] (GA treated group, before 3 mg/kg GA every day) is given as 51.74±3.8 mm^3. In addition, the “Average body weight at start” value in data set [4] (mouse, in vivo) was found to be 22.4 ± 1 g. The “VEGF induced corneal angiogenesis” value in the data set with mouse cornea is “significantly inhibits corneal angiogenesis; also recorded: dramatically inhibits”. The Retinal neovascularization result in the data set on mice exposed to OIR is on record as “significantly inhibits retinal neovascularization; also recorded: significant difference in the degree of neovascularization”. In addition, in data set [5], the Toxicity of dosage entry was “non-toxic dosage”.

The values are drawn from US20090259054A1, “Methods and Compositions for the Treatment of Angiogenesis and Macular Degeneration” (The Texas A&M University System, priority 2008, published 2009).
